Assays:
[1] = target: T1, catalytic domain of human Bub1 (amino acids 704-1085) (Homo sapiens, UniProt O43683); assay: Bub1 kinase assay (TR-FRET); format: biochemical; details: 10 μM ATP, avg, read-out: Bub1 avg (IC50 [mol/l])
T1 construct: catalytic domain of human Bub1 (amino acids 704-1085); His6 (N); made in house; host or cells: insect cells (Hi5)
How it was run: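 Readout is the 665/620 nm TR-FRET ratio from anti-phosphoserine antibody, Eu-labelled anti-mouse IgG and streptavidin-XL665, scaled between no-enzyme and uninhibited controls. Reaction: 1 μM biotinylated peptide, 10 μM ATP, 60 min, 22 °C, after 15 min compound preincubation with His6-Bub1 (704-1085, insect-expressed, ~200 ng/ml).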

CDK2/CycE = target: T2, CDK2/CycE (Homo sapiens, UniProt P24941); assay: CDK2/CycE kinase assay (TR-FRET); format: biochemical; details: avg, read-out: CDK2 avg (IC50 [mol/l])
T2 construct: GST; purchased ProQinase GmbH (Freiburg, Germany); host or cells: insect cells (Sf9)
How it was run: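 Read-out is a TR-FRET 665/620 nm emission ratio from EDTA-stopped reactions detected with anti-pRB(pSer807/pSer811), Eu-labelled anti-mouse IgG and streptavidin-XL665, scaled between no-enzyme and uninhibited wells. Reaction: Sf9-expressed GST-CDK2/GST-CycE, 15 min compound preincubation, 10 μM ATP, 0.75 μM biotin-peptide, 25 min, 22° C., pH 8.0 Tris buffer.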

T1 sequence (O43683 704-1085): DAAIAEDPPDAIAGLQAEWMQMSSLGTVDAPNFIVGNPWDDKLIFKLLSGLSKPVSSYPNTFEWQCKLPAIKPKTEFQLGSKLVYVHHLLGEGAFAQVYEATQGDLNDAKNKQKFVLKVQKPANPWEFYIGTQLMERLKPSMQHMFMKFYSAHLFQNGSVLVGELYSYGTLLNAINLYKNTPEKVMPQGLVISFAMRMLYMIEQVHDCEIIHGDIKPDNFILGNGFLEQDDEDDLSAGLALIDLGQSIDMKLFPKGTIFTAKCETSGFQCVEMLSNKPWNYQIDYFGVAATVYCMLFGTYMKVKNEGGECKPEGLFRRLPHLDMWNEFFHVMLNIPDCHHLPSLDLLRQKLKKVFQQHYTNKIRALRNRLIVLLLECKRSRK

Structure (SMILES)	IC50 [1] [µM]	IC50 (CDK2/CycE) [µM]
Cc1nsc(Nc2cnc3ccccc3n2)c1C(=O)Nc1ccc(Nc2ccc(F)c(F)c2)nc1 [Example 245, N-{6-[(3,4-difluorophenyl)amino]pyridin-3-yl}-3-methyl-5-(quinoxalin-2-ylamino)-1,2-thiazole-4-carboxamide]	> 20	12
Cc1nsc(Nc2ccc(C#N)cn2)c1C(=O)Nc1ccc(S(C)(=O)=O)cc1 [Example 246, 5-[(5-cyanopyridin-2-yl)amino]-3-methyl-N-[4-(methylsulfonyl)phenyl]-1,2-thiazole-4-carboxamide]	> 20	> 20
CCN(CC)CCNC(=O)c1cccc(NC(=O)c2c(C)nsc2Nc2cnccn2)c1 [Example 247, N-(3-{[2-(diethylamino)ethyl]carbamoyl}phenyl)-3-methyl-5-(pyrazin-2-ylamino)-1,2-thiazole-4-carboxamide]	> 20	> 20

From patent publication US20170334899A1, “AMINO-SUBSTITUTED ISOTHIAZOLES” (Bayer Pharma Aktiengesellschaft, priority 2014, published 2017)
